Results from US20050020565A1, “CCK-1 receptor modulators” (priority 2003, published 2005).

Row | Structure (SMILES) | melting point [°C]
1 | COc1ccc(-n2nc(C[C@H](C(=O)[O-])c3cccc(C)c3)cc2-c2ccc(Cl)c(Cl)c2)cc1.[Na+] (stereo in doubt) [Example 1] | 295.5 to 297.5
2 | COc1ccc(-n2nc(C[C@H](C(=O)[O-])c3cccc(C)c3)cc2-c2ccc(Cl)c(Cl)c2)cc1.[Na+] (stereo in doubt) [Example 505] | 280 to 285
3 | CON(C)C(=O)c1ccc(Cl)c(Cl)c1 [Example 511, 3,4-Dichloro-N-methoxy-N-methyl-benzamide] | 39.5 to 43.2
